Assay [1] relates to colorectal (HCT116 and SW620) cell line models. The assay can be described thus: MTS growth inhibition assay. It counts as cell-based. The settings on record: increasing concentrations of 5-FU between 0 and 100 μmol/L; both colorectal cancer cell lines. On the procedure: The Cell Titer AQueous MTS assay (Promega) is carried out according to the manufacturers guidelines. […] The combination effect is determined by the combination index (CI) method utilizing Calcusyn software (Biosoft, Ferguson, Mo.). Fraction affected (FA) is calculated from the percent growth inhibition: FA=[…]. CI values <1, synergism; 1-1.2, additive and >1.2, antagonism.
Test compounds are evaluated for their antitumor activity in colorectal cancer cells using the MTS growth inhibition assay. HCT116 and SW620 cells are exposed to increasing concentrations of each agent for 72 hours and growth inhibition is directly compared to vehicle-treated controls. The NSCLC cell lines A549 and H1299 are exposed to increasing concentrations of each agent for 72 hours and growth inhibition is directly compared to vehicle-treated controls.
MTS growth inhibition assays are performed to evaluate the effectiveness of the test compounds alone and in combination with the fluoropyrimidine thymidylate synthase (TS) inhibitor 5-fluorouracil (5-FU) at inhibiting the growth of colorectal (HCT116 and SW620) cell line models. […] Simultaneous treatment with increasing concentrations of 5-FU and a test compound at fixed concentrations of 25 μmol/L is determined.

The target in assay [2] is T1, recombinant human deoxyuridine nucleotidohydrolase (dUTPase) (Homo sapiens, UniProt P33316).
T1 construct: made in house
T1 sequence (P33316 1-164 isoform P33316-2): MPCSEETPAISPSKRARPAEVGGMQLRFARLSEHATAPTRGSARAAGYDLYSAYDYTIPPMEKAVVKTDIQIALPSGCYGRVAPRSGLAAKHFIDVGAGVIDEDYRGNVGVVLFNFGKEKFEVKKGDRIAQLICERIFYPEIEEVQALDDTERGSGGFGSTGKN
The assay can be described thus: fluorescence-based dUTPase inhibition assay (DNA polymerase-based dUTP detection). It counts as biochemical. To be noted: 5 ng recombinant dUTPase, 50 pmols dUTP, 37° C. for 8 mins.

Assay [3] concerns the target T1, recombinant human deoxyuridine nucleotidohydrolase (dUTPase). The assay is described as above. The settings on record: mean across three concentrations, typically 100, 50 and 25 μmol/L, compared to the in-run positive control. It counts as biochemical. The text has this:
Recombinant human deoxyuridine nucleotidohydrolase (dUTPase) is expressed and purified as described in Ladner R D, Carr S A, Huddleston M J, McNulty D E, Caradonna S J. J Biol Chem. 1996 Mar. 29; 271(13):7752-7. All drugs stocks are aliquoted and diluted as appropriate prior to use. The oligonucelotide primer, templates and fluorophore- and quencher-labeled detection probes are synthesized by Integrated DNA Technologies (Coralville, Iowa), subjected to polyacrylamide gel electrophoresis purification and reconstituted in Omnipur sterile nuclease-free water (EMD Chemicals USA, Gibbstown N.J.) at a stock concentration of 100 μmol/L. The two non-emissive (dark) quenching molecules incorporated into the detection probes include the Iowa black fluorescein quencher (IBFQ; absorption max 531 nm) and ZEN (non-abbreviation; absorption max 532 nm). The fluorescent label utilized is 6-FAM (5′-carboxyfluorescein; excitation max.=494 nm, emission max.=520 nm). Probes are further diluted to a working stock of 10 μmol/L and aliquoted to avoid repeated freeze/thaw cycles. AmpliTaq Gold DNA Polymerase, GeneAmp 10×PCR Buffer 2, MgCl2 and MicroAmp Optical 96-well Reaction Plates are purchased from Applied Biosystems (Carlsbad, Calif.). dNTPs are purchased individually at stock concentrations of 100 mmol/L from New England Biolabs at HPLC-certified >99% purity (Ipswich, Mass.).
Reaction mixtures contained primer, probe and template at an equimolar final concentration of 0.4 μmol/L. Magnesium chloride (MgCl2) is included at a final concentration of 2 mmol/L. Non-limiting dNTPs are included in the reaction mix in excess at a final concentration of 100 μmol/L (dUTP/dTTP is excluded). AmpliTaq Gold DNA polymerase is added at 0.875 U/reaction, 2.5 μl of 10×PCR buffer 2 added and nuclease-free ddH2O added to a final reaction volume of 25 μl. For dUTP inhibition analysis, the volume of ddH2O is further modified to accommodate an additional 1 μl of dUTPase (10 ng/μl) and 1 μl of inhibitor or DMSO control. Thermal profiling and fluorescence detection is performed using a customized thermal program on board a Roche Lightcycler LC480 Instrument II. For analysis of dNTPs, the thermal profile consisted of an 8 min 37° C. step followed by a 10 min 95° C. step to ‘hot-start’ the Taq polymerase and a primer extension time of up to 30 min at 60° C. Raw fluorescence spectra for 6-FAM is measured at specified time intervals to follow assay progression on board a Roche LightCycler 480 Software Version 1.5 and exported and analyzed in Microsoft Excel (Microsoft, Redmond Wash.) and Prism (GraphPad Software, La Jolla Calif.). Fluorescence values for blank reactions (limiting dNTP omitted) are subtracted to give normalized fluorescence units (NFU) to account for background fluorescence.
Test compounds were screened in a fluorescence-based assay. The assay employed a DNA polymerase-based approach utilizing an oligonucleotide template with 3 distinct regions: a 3′ primer binding region, a mid-template dUTP/thymidine triphosphate (TTP) detection region and a 5′ 6-[…] (FAM)-labeled probe binding region that incorporates a black hole quenching moiety. During the reaction, the probe and primer hybridize to the oligonucleotide template to form the template:primer:probe complex. When Taq polymerase binds to the primer in the TPP complex and dUTP is present, successful extension of the nascent strand occurs and the inherent 5′ to 3′ exonuclease activity of Taq polymerase cleaves and displaces the 6-FAM-labeled probe in a 5′ to 3′ direction, releasing the 6-FAM fluorophore from its proximity to the […]. This displacement effectively disrupts the Förster resonance energy transfer (FRET) and the resulting fluorescence detected upon excitation is directly proportional to the amount of the dUTP available in the assay for incorporation. […]

The subject of assay [4] is colorectal (HCT116), breast (MCF-7) and non-small cell lung (H1299, A549, H358 and H460) cell line models. The assay can be described thus: Colony forming assay. To be noted: increasing concentrations of FUdR between 0.5 and 2.5 μmol/L; all cell lines evaluated. It counts as cell-based. The protocol: Colony forming assay showing the ability of colon (SW620, HCT116), non-small cell lung (A549, H460, H1299 and H358) and breast (MCF7) cancer cells to survive and proliferate following transient 24 hour exposure to test compounds, FUdR and combinations are determined. Specifically, cells are seeded at densities between 50 and 100 cells/well in 24-well plates. […] After 24 hours, drug is removed, cells are rinsed and allowed to outgrow for 10-14 days. At the conclusion of the outgrowth, cells are fixed in 60% ice cold methanol and stained with 0.1% crystal violet, scanned and counted. Data is presented as percentage of untreated controls (mean±SD). Fraction affected and combination indexes are calculated according to the method of Chou and Talalay where <1 is indicative of a synergistic drug interaction.
Colony forming assays are performed to evaluate the effectiveness of test compounds alone and in combination with the fluoropyrimidine thymidylate synthase (TS) inhibitor fluorodeoxyuridine (FUdR) at reducing cancer cell viability in colorectal (HCT116), breast (MCF-7) and non-small cell lung (H1299, A549, H358 and H460) cell line models. […] In colorectal cancer cells, concentrations of test compounds ranging e.g., from 3.1 μmol/L to 50 μmol/L are combined with 0.5 μmol/L FUdR in HCT116 cells and 1 μmol/L FUdR in SW620 cells.

Regarding `O=c1[nH]cc(F)c(=O)[nH]1` [Example 5-FU, 5-fluorouracil], the growth inhibition entry in assay [1] is listed as “dose-dependent increases in growth inhibition”.

For the compound `C[C@@H](NS(=O)(=O)CCCOCN1CCC(=O)NC1=O)c1cccc(OC2CCCC2)c1` [Example 93, (R)—N-(1-(3-(cyclopentyloxy)phenyl)ethyl)-3-((2,4-dioxotetrahydropyrimidin-1(2H)-yl)methoxy)propane-1-sulfonamide], the IC50 in assay [2] stood at 500 nM. In addition, the “% relative inhibition vs. positive control” value in assay [3] turned out to be 149%.

Consider `O=c1[nH]c(=O)n([C@H]2C[C@H](O)[C@@H](CO)O2)cc1F` [FUdR, fluorodeoxyuridine], for which, in assay [4], the colonies formed result is reported as “dose-dependent decreases in colonies formed”.
